Earlier results as cited in patent US8044033B2, “Fluorocytidine derivatives and COX-2 inhibitors for the treatment of cancer” (The Board of Regents of the University of Texas System, priority 2006, dated 2011).
Like-named read-outs stand apart in the source and are kept apart here.

Key:
[1] = tested on: metastatic colorectal cancer
[2] = First-line therapy, no radiation, cross-study comparison
[3] = first-line treatment of metastatic colorectal cancer

In the case of `CCCCCOC(=O)Nc1nc(=O)n([C@@H]2O[C@H](C)[C@@H](O)[C@H]2O)cc1F` [Capecitabine, capecitabine], the “incidence of hand-foot syndrome (HFS)” value (1250 mg/m2/day bid for two weeks every 3 weeks) is given as 54%, the “incidence of grade 2/3 HFS” value (earlier study, capecitabine dose 1000 mg/m2/d bid (Lin et al., 2002)) is given as 34.2% and the “Complete response (%)” value [1, 2] is given as 1%. The “Median OS (months)” value [1, 2] was 12.4-13.2 months, the “Median OS (months)” value ([1]; Second-line therapy, no radiation, cross-study comparison) was 12.7 months and the overall survival [1, 3] was 12 months. The response rate [1, 3] was 25% and the “time to tumor progression in half of the patients” value ([1]; monotherapy) was 2-4 months.
